Laboratory results as given in patent publication US20060063784A1, “Method of using substituted pyrazolo [1,5-a] pyrimidines” (priority 2004, published 2006).
Read-outs that look alike come from different tables or passages of the source.

How the values were obtained:
[1] = tested on: 80S14 (p21-deficient) cells; experiment: Cytotoxicity assay using isogenic cell lines: IC50 in 80S14 (p21-deficient) cells, SRB; format: cell-based, human; settings: SRB
Summary of the method: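 80S14 (p21-deficient) cells seeded at 12,000 cells/well overnight, then exposed 5 days at 37 °C to serial dilutions (5 pM–50 μM or 170 pg/ml–10 μg/ml). TCA-fixed, sulforhodamine B-stained, absorbance at 560 nm; IC50 taken from cytotoxicity curves versus untreated controls.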

LoVo Colon cell line = experiment: Cytotoxicity assay using LoVo colon cell line, SRB; format: cell-based; settings: 4 days incubation, SRB, read-out: Inhibition of LoVo
Protocol: Cytotoxicity Assay Using LoVo Colon Cell Line: • 1. LoVo Colon cell lines were cultured in RPMI 1640 medium (Gibco/Invitrogen Life Sciences) supplemented with 10% fetal bovine serum (FBS, Gibco) and 50 μg/ml entamicin (Gibco). Cells were maintained at 37° C. under 7% CO2. • 2. Cells were seeded in 96-well microtiter plates (Corning/Costar) in a volume of 0.15 ml of growth medium (4000 cells/well). Plates were incubated at 37° C. overnight (18-24 hours). • 3. Serial dilutions of the test agent were added to each well. Dilutions were prepared in growth medium. One of two dose ranges was used: 5 pM to 20 μM or 170 pg/ml to 10 μg/ml. Cells were incubated with the test compounds for 4 days at 37° C. • 4. Surviving cells were processed using the SRB asay, as described above.
5. The drug concentration that inhibits cell proliferation by 50% relative to untreated controls (IC50) was determined from cytotoxicity curves using the LSW Toolbox graphing application.

[2] = Homo sapiens, 120 h, 80S14 (p21-deficient) cells, 5 days, class symbols, read-out: IC50 for 80S14
[3] = Homo sapiens, 96 h, Cellular activity in LoVo cell
[4] = Homo sapiens, 120 h, 80S14 p21-deficient cells, 5 days incubation, read-out: IC50 for 80SI4
[5] = Homo sapiens, 96 h, LoVo colon cells
[6] = 80S14 (p21-deficient) cells, 5 days, class symbols, read-out: IC50 for 80S14

Molecule: CCCCC(CC)CNc1cccc(-c2ccnc3c(C(=O)c4cccs4)cnn23)c1 (stereo not drawn) [Example 419, (7-{3-[(2-Ethylhexyl)amino]phenyl}pyrazolo[1,5-a]pyrimidin-3-yl)(thien-2-yl)methanone]
- IC50 [1, 2]: 1000 to 10000 nM
- IC50 (LoVo Colon cell line; [3]): 1000 to 20000 nM

Molecule: CN(C)c1cccc(-c2cccc(-c3ccnc4c(C(=O)c5cccs5)cnn34)c2)c1 [Example 453, {7-[3′-(Dimethylamino)-1,1′-biphenyl-3-yl]pyrazolo[1,5-a]pyrimidin-3-yl}(thien-2-yl)methanone]
- IC50 [1, 2]: 1000 to 10000 nM
- IC50 (LoVo Colon cell line; [3]): 100 to 1000 nM

Molecule: Nc1cc(-c2ccnc3c(C(=O)c4cccs4)cnn23)ccc1F [Example 352, [7-(3-Amino-4-fluorophenyl)pyrazolo[1,5-a]pyrimidin-3-yl](thien-2-yl)methanone]
- IC50 [1, 2]: 1000 to 10000 nM
- IC50 (LoVo Colon cell line; [3]): 1000 to 20000 nM

Molecule: O=C(c1cccs1)c1cnn2c(-c3cccc(NC(=S)Nc4ccccc4)c3)ccnc12 [Example 334, N-Phenyl-N′-{3-[3-(thien-2-ylcarbonyl)pyrazolo[1,5-a]pyrimidin-7-yl]phenyl}thiourea]
- IC50 [1, 2]: < 1000 nM
- IC50 (LoVo Colon cell line; [3]): 100 to 1000 nM

Molecule: CCCOC(=O)Nc1cccc(-c2cc(C)nc3c(C(=O)c4cccs4)cnn23)c1 [Example 194, propyl 3-[5-methyl-3-(thien-2-ylcarbonyl)pyrazolo[1,5-a]pyrimidin-7-yl]phenylcarbamate]
- IC50 [1, 4]: < 1000 nM
- IC50 (LoVo Colon cell line; [5]): < 100 nM

Molecule: O=C(CCC(Cl)(Cl)Cl)Nc1cccc(-c2ccnc3c(C(=O)c4cccs4)cnn23)c1 [Example 354, 4,4,4-Trichloro-N-{3-[3-(thien-2-ylcarbonyl)pyrazolo[1,5-a]pyrimidin-7-yl]phenyl}butanamide]
- IC50 [1, 2]: < 1000 nM
- IC50 (LoVo Colon cell line; [3]): < 100 nM

Molecule: CC(C)CC(=O)Nc1cccc(-c2ccnc3c(-c4ccc(CO)cc4)cnn23)c1 [Example 469, N-(3-{3-[4-(Hydroxymethyl)phenyl]pyrazolo[1,5-a]pyrimidin-7-yl}phenyl)-3-methylbutanamide]
- IC50 [1, 2]: 10000 to 50000 nM
- IC50 (LoVo Colon cell line; [3]): 1000 to 20000 nM

Molecule: COc1cccc(-c2cnn3c(-c4cccc(NC(=O)CC(C)C)c4)ccnc23)c1 [Example 478, N-{3-[3-(3-Methoxyphenyl)pyrazolo[1,5-a]pyrimidin-7-yl]phenyl}-3-methylbutanamide]
- IC50 [1, 2]: 10000 to 50000 nM
- IC50 (LoVo Colon cell line; [3]): 1000 to 20000 nM

Molecule: O=C(CC1CCCCC1)Nc1cccc(-c2ccnc3c(C(=O)c4cccs4)cnn23)c1 [Example 74, 2-cyclohexyl-N-{3-[3-(thien-2-ylcarbonyl)pyrazolo[1,5-a]pyrimidin-7-yl]phenyl}acetamide]
- IC50 [1, 4]: < 1000 nM
- IC50 (LoVo Colon cell line; [5]): < 100 nM

Molecule: O=C(c1cccs1)c1cnn2c(-c3cccc(NCCc4ccccc4)c3)ccnc12 [Example 362, (7-{3-[(2-Phenylethyl)amino]phenyl}pyrazolo[1,5-a]pyrimidin-3-yl)(thien-2-yl)methanone]
- IC50 [1, 2]: 10000 to 50000 nM
- IC50 (LoVo Colon cell line; [3]): 1000 to 20000 nM

Molecule: CC(C)OC(=O)Nc1ccc(-c2ccnc3c(C(=O)c4cccs4)cnn23)s1 [Example 344, Isopropyl 5-[3-(thien-2-ylcarbonyl)pyrazolo[1,5-a]pyrimidin-7-yl]thien-2-ylcarbamate]
- IC50 [1, 2]: 1000 to 10000 nM
- IC50 (LoVo Colon cell line; [3]): 1000 to 20000 nM

Molecule: COCCN(CCOC)C(=O)Nc1cccc(-c2ccnc3c(C(=O)c4cccs4)cnn23)c1 [Example 168, N,N-bis(2-methoxyethyl)-N′-{3-[3-(thien-2-ylcarbonyl)pyrazolo[1,5-a]pyrimidin-7-yl]phenyl}urea]
- IC50 [1, 4]: 10000 to 50000 nM
- IC50 (LoVo Colon cell line; [5]): 1000 to 2000 nM

Molecule: CCCCOC(=O)Nc1cccc(-c2cc(C)nc3c(C(=O)c4cccs4)cnn23)c1 [Example 195, butyl 3-[5-methyl-3-(thien-2-ylcarbonyl)pyrazolo[1,5-a]pyrimidin-7-yl]phenylcarbamate]
- IC50 [1, 4]: < 1000 nM
- IC50 (LoVo Colon cell line; [5]): < 100 nM

Molecule: N-{4-Chloro-3-[3-(thien-2-ylcarbonyl)pyrazolo[1,5-a]yrimidin-7-yl]phenyl}-N′-isopropylthiourea [Example 340]
- IC50 [1, 6]: 1000 to 10000 nM
- IC50 (LoVo Colon cell line; Cellular activity in LoVo cell): 100 to 1000 nM

Molecule: CC12CCC(C(=O)Nc3cccc(-c4ccnc5c(C(=O)c6cccs6)cnn45)c3)(OC1=O)C2(C)C (stereo not drawn) [Example 54, 4,7,7-trimethyl-3-oxo-N-{3-[3-(thien-2-ylcarbonyl)pyrazolo[1,5-a]pyrimidin-7-yl]phenyl}-2-oxabicyclo[2.2.1]heptane-1-carboxamide]
- IC50 [1, 4]: < 1000 nM
- IC50 (LoVo Colon cell line; [5]): < 100 nM

Molecule: CC(C)CC(=O)Nc1cccc(-c2ccnc3c(-c4ccc(Cl)c(Cl)c4)cnn23)c1 [Example 474, N-{3-[3-(3,4-Dichlorophenyl)pyrazolo[1,5-a]pyrimidin-7-yl]phenyl}-3-methylbutanamide]
- IC50 [1, 2]: 10000 to 50000 nM
- IC50 (LoVo Colon cell line; [3]): 1000 to 20000 nM

Molecule: O=C(c1cccs1)c1cnn2c(-c3cccc(NCc4ccccc4)c3)ccnc12 [Example 349, {7-[3-(Benzylamino)phenyl]pyrazolo[1,5-a]pyrimidin-3-yl}(thien-2-yl)methanone]
- IC50 [1, 2]: 1000 to 10000 nM
- IC50 (LoVo Colon cell line; [3]): 100 to 1000 nM

Molecule: CN(C)c1ccc(-c2cc(-c3ccnc4c(C(=O)c5cccs5)cnn34)ccc2F)cc1 [Example 454, {7-[4′-(Dimethylamino)-6-fluoro-1,1′-biphenyl-3-yl]pyrazolo[1,5-a]pyrimidin-3-yl}(thien-2-yl)methanone]
- IC50 [1, 2]: 1000 to 10000 nM
- IC50 (LoVo Colon cell line; [3]): 100 to 1000 nM

Molecule: O=C(Nc1cc(-c2ccnc3c(C(=O)c4cccs4)cnn23)ccc1Cl)c1ccccc1 [Example 312, N-{2-Chloro-5-[3-(2-thienylcarbonyl)pyrazolo[1,5-a]pyrimidin-7-yl]phenyl}benzamide]
- IC50 [1, 2]: < 1000 nM
- IC50 (LoVo Colon cell line; [3]): < 100 nM

Molecule: CC(C)CC(=O)Nc1cccc(-c2ccnc3c(-c4cccc(C#N)c4)cnn23)c1 [Example 482, N-{3-[3-(3-Cyanophenyl)pyrazolo[1,5-a]pyrimidin-7-yl]phenyl}-3-methylbutanamide]
- IC50 [1, 2]: 10000 to 50000 nM
- IC50 (LoVo Colon cell line; [3]): 1000 to 20000 nM

Molecule: CC(C)CC(=O)Nc1ccc(-c2ccnc3c(C(=O)c4cccs4)cnn23)s1 [Example 343, 3-Methyl-N-{5-[3-(thien-2-ylcarbonyl)pyrazolo[1,5-a]pyrimidin-7-yl]thien-2-yl}butanamide]
- IC50 [1, 2]: 1000 to 10000 nM
- IC50 (LoVo Colon cell line; [3]): 1000 to 20000 nM

Molecule: O=C(c1cccs1)c1cnn2c(-c3cccc(NC/C=C/c4ccc([N+](=O)[O-])cc4)c3)ccnc12 [Example 398, [7-(3-{[(2E)-3-(4-Nitrophenyl)prop-2-enyl]amino}phenyl)pyrazolo[1,5-a]pyrimidin-3-yl] (thien-2-yl)methanone]
- IC50 [1, 2]: 10000 to 50000 nM
- IC50 (LoVo Colon cell line; [3]): 1000 to 20000 nM

Molecule: COc1ccc(-c2cnn3c(-c4cccc(NC(=O)CC(C)C)c4)ccnc23)cc1C=O [Example 484, N-{3-[3-(3-Formyl-4-methoxyphenyl)pyrazolo[1,5-a]pyrimidin-7-yl]phenyl}-3-methylbutanamide]
- IC50 [1, 2]: 1000 to 10000 nM
- IC50 (LoVo Colon cell line; [3]): 1000 to 20000 nM

Molecule: CCC(C)C(C)CNc1cccc(-c2ccnc3c(C(=O)c4cccs4)cnn23)c1 (stereo not drawn) [Example 430, (7-{3-[(2,3-Dimethylpentyl)amino]phenyl}pyrazolo[1,5-a]pyrimidin-3-yl)(thien-2-yl)methanone]
- IC50 [1, 2]: 1000 to 10000 nM
- IC50 (LoVo Colon cell line; [3]): 100 to 1000 nM

Molecule: CC(CNc1cccc(-c2ccnc3c(C(=O)c4cccs4)cnn23)c1)c1ccccc1 (stereo not drawn) [Example 378, (7-{3-[(2-Phenylpropyl)amino]phenyl}pyrazolo[1,5-a]pyrimidin-3-yl)(thien-2-yl)methanone]
- IC50 [1, 2]: 1000 to 10000 nM
- IC50 (LoVo Colon cell line; [3]): 1000 to 20000 nM

Molecule: C=C(C)C(=O)Nc1cccc(-c2ccnc3c(C(=O)c4cccs4)cnn23)c1 [Example 44, 2-methyl-N-{3-[3-(thien-2-ylcarbonyl)pyrazolo[1,5-a]pyrimidin-7-yl]phenyl}acrylamide]
- IC50 (LoVo Colon cell line; [5]): < 100 nM

Molecule: CC(C)CC(=O)NCC(=O)Nc1cccc(-c2ccnc3c(C(=O)c4cccs4)cnn23)c1 [Example 133, 3-methyl-N-[2-oxo-2-({3-[3-(thien-2-ylcarbonyl)pyrazolo[1,5-a]pyrimidin-7-yl]phenyl}amino)ethyl]butanamide]
- IC50 [1, 4]: 1000 to 10000 nM

Molecule: CCNc1ccc(-c2ccnc3c(C(=O)c4cccs4)cnn23)cc1 [Example 271, [7-[4-(Ethylamino)phenyl]pyrazolo[1,5-a]pyrimidin-3-yl]-2-thienyl-methanone]
- IC50 [1, 2]: 10000 to 50000 nM

Molecule: NCCCC(=O)Nc1cccc(-c2ccnc3c(C(=O)c4cccs4)cnn23)c1 [Example 84, 4-amino-N-{3-[3-(thien-2-ylcarbonyl)pyrazolo[1,5-a]pyrimidin-7-yl]phenyl}butanamide]
- IC50 [1, 4]: 10000 to 50000 nM

Molecule: 1-Methyl-N-{3-[3-(thien-2-ylcarbonyl)pyrazolo[1,5-a]pyrimidin-7-yl]phenyl}piperidine-4-carboxaamide [Example 417]
- IC50 [1, 6]: 10000 to 50000 nM

Molecule: Cc1cnc2c(C(=O)c3cccs3)cnn2c1-c1cccc(NC(=O)c2cccnc2)c1 [Example 220, N-{3-[6-methyl-3-(thien-2-ylcarbonyl)pyrazolo[1,5-a]pyrimidin-7-yl]phenyl}nicotinamide]
- IC50 [1, 4]: 10000 to 50000 nM

Molecule: O=C(CNC(=O)OCCCCCl)Nc1cccc(-c2ccnc3c(C(=O)c4cccs4)cnn23)c1 [Example 119, 4-chlorobutyl 2-oxo-2-({3-[3-(thien-2-ylcarbonyl)pyrazolo[1,5-a]pyrimidin-7-yl]phenyl}amino)ethylcarbamate]
- IC50 [1, 4]: 10000 to 50000 nM
